Assay results taken from patent US20250320213A1, “Nitrogen-Containing Heterocyclic Compounds” (Pfizer Inc., priority 2024, published 2025).
pEC50: −log10 of the molar value.

biological target: T1, STAT6 (Homo sapiens, UniProt P42226); assay: STAT6 Reporter Luciferase Assay (IL-13 stimulated HaCaT keratinocyte NanoLuc reporter cells); format: cell-based; settings: IL-13 stimulated HaCaT STAT6 NanoLuc reporter cells; read-out: Reporter EC50
T1 construct: stably transfected HaCaT keratinocyte cell line, which expresses NanoLuc luciferase reporter gene under the transcriptional control of the STAT6 responsive promoter; endogenous in cells; host or cells: HaCaT keratinocyte reporter cell line (stably transfected with a NanoLuc reporter)
T1 sequence (P42226 1-847): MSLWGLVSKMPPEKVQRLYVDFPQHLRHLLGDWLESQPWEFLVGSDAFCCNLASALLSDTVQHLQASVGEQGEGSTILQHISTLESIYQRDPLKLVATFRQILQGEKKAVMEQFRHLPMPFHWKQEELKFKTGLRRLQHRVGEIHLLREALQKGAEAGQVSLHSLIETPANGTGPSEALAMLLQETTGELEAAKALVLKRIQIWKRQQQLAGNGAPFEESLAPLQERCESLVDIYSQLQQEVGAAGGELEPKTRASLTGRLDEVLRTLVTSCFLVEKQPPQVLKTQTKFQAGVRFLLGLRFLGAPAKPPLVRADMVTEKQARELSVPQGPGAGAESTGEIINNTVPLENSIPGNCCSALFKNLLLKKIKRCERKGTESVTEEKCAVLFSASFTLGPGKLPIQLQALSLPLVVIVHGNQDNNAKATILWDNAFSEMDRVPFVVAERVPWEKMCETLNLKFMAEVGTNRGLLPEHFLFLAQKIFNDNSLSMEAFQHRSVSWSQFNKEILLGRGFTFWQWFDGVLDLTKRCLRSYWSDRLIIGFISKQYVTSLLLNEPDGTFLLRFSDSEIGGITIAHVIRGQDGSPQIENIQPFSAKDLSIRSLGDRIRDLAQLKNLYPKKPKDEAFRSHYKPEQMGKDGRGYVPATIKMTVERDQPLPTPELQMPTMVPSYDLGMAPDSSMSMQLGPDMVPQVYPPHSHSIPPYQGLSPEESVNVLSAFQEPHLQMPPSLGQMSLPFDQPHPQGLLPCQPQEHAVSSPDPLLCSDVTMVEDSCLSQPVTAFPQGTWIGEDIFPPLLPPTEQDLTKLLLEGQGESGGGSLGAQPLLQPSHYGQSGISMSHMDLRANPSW
Outline: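 HaCaT IL-13Ra2-promoter NanoLuc reporter; cpd 2 h 37 °C in DMEM/2% HI FBS; IL-13 0.12 nM final, 4 h; Nano-Glo luminescence.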

Row | Structure (SMILES) | pEC50
1 | CC(C)n1nc(C(=O)NCc2ccc(NC(=O)N3CC[C@H](N(C)C)C3)cc2)c2c1[C@@H](C)CN(c1ccc(C(=O)N(C)C)cc1)C2 [Example 747, (S)-N-(4-((S)-3-(dimethylamino)pyrrolidine-1-carboxamido)benzyl)-5-(4-(dimethylcarbamoyl)phenyl)-1-isopropyl-7-methyl-4,5,6,7-tetrahydro-1H-pyrazolo[4,3-c]pyridine-3-carboxamide] | 9.00
2 | CC(C)n1nc(C(=O)NCc2ccc(NC(=O)N(C)C)cc2)c2c1CCN(c1ccc(C(=O)N3Cc4cccc(C#N)c4C3)cn1)C2 [Example 415, 5-(5-(4-cyanoisoindoline-2-carbonyl)pyridin-2-yl)-N-(4-(3,3-dimethylureido)benzyl)-1-isopropyl-4,5,6,7-tetrahydro-1H-pyrazolo[4,3-c]pyridine-3-carboxamide] | 8.52
3 | CC(C)n1nc(C(=O)NCc2ccc(NC(=O)N(C)C)cc2)c2c1CCN(c1ccc(C(=O)N3C[C@@H](C)O[C@@H](C)C3)cn1)C2 [Example 207, 5-(5-((2R,6S)-2,6-dimethylmorpholine-4-carbonyl)pyridin-2-yl)-N-(4-(3,3-dimethylureido)benzyl)-1-isopropyl-4,5,6,7-tetrahydro-1H-pyrazolo[4,3-c]pyridine-3-carboxamide] | 6.57
4 | Cc1nnc2n1CCN(C(=O)c1ccc(N3CCc4c(c(C(=O)NCc5ccc(NC(=O)N(C)C)cc5)nn4C(C)C)C3)nc1)C2 [Example 373, N-(4-(3,3-dimethylureido)benzyl)-1-isopropyl-5-(5-(3-methyl-5,6,7,8-tetrahydro-[1,2,4]triazolo[4,3-a]pyrazine-7-carbonyl)pyridin-2-yl)-4,5,6,7-tetrahydro-1H-pyrazolo[4,3-c]pyridine-3-carboxamide] | 6.27
5 | CCS(=O)(=O)N1CCN(C(=O)c2ccc(N3CCc4c(c(C(=O)NCc5ccc(NC(=O)N(C)C)cc5)nn4C(C)C)C3)nc2)CC1 [Example 563, N-(4-(3,3-dimethylureido)benzyl)-5-(5-(4-(ethylsulfonyl)piperazine-1-carbonyl)pyridin-2-yl)-1-isopropyl-4,5,6,7-tetrahydro-1H-pyrazolo[4,3-c]pyridine-3-carboxamide] | 6.69
6 | CC(C)n1nc(C(=O)NCc2ccc(NC(=O)N(C)C)cc2)c2c1CCN(c1ccc(C(=O)N(C)CCO)cn1)C2 [Example 332, N-(4-(3,3-dimethylureido)benzyl)-5-(5-((2-hydroxyethyl)(methyl)carbamoyl)pyridin-2-yl)-1-isopropyl-4,5,6,7-tetrahydro-1H-pyrazolo[4,3-c]pyridine-3-carboxamide] | 6.80
7 | CC(C)n1nc(C(=O)NCc2ccc(NC(=O)N(C)C)cc2)c2c1CCN(c1ccc(C(=O)N3CC4(CCO4)C3)cn1)C2 [Example 326, 5-(5-(1-oxa-6-azaspiro[3.3]heptane-6-carbonyl)pyridin-2-yl)-N-(4-(3,3-dimethylureido)benzyl)-1-isopropyl-4,5,6,7-tetrahydro-1H-pyrazolo[4,3-c]pyridine-3-carboxamide] | 5.89
8 | CC(C)n1nc(C(=O)NCc2ccc(NC(=O)N(C)C)cc2)c2c1CCN(c1ccc(C(=O)N3CC(=O)N(C)[C@H](C)C3)cn1)C2 [Example 293, (R)-5-(5-(3,4-dimethyl-5-oxopiperazine-1-carbonyl)pyridin-2-yl)-N-(4-(3,3-dimethylureido)benzyl)-1-isopropyl-4,5,6,7-tetrahydro-1H-pyrazolo[4,3-c]pyridine-3-carboxamide] | 7.00
9 | CC(C)n1nc(C(=O)NCc2ccc(NC(=O)N(C)C)cc2)c2c1CCN(c1ccc(C(=O)N3C[C@@H]4OC(=O)N(C)[C@@H]4C3)cn1)C2 (racemic) [Example 334, rac-N-(4-(3,3-dimethylureido)benzyl)-1-isopropyl-5-(5-((3aR,6aS)-3-methyl-2-oxohexahydro-2H-pyrrolo[3,4-d]oxazole-5-carbonyl)pyridin-2-yl)-4,5,6,7-tetrahydro-1H-pyrazolo[4,3-c]pyridine-3-carboxamide] | 6.75
10 | CC(=O)NC1CN(C(=O)c2ccc(N3CCc4c(c(C(=O)NCc5ccc(NC(=O)N(C)C)cc5)nn4C(C)C)C3)nc2)C1 [Example 292, 5-(5-(3-acetamidoazetidine-1-carbonyl)pyridin-2-yl)-N-(4-(3,3-dimethylureido)benzyl)-1-isopropyl-4,5,6,7-tetrahydro-1H-pyrazolo[4,3-c]pyridine-3-carboxamide] | 6.00
11 | Cc1nc2c(s1)CN(C(=O)c1ccc(N3CCc4c(c(C(=O)NCc5ccc(NC(=O)N(C)C)cc5)nn4C(C)C)C3)nc1)CC2 [Example 365, N-(4-(3,3-dimethylureido)benzyl)-1-isopropyl-5-(5-(2-methyl-4,5,6,7-tetrahydrothiazolo[5,4-c]pyridine-5-carbonyl)pyridin-2-yl)-4,5,6,7-tetrahydro-1H-pyrazolo[4,3-c]pyridine-3-carboxamide] | 8.22
12 | CO[C@@H]1CCN(C(=O)c2ccc(N3CCc4c(c(C(=O)NCc5ccc(NC(=O)N(C)C)cc5)nn4C(C)C)C3)nc2)C1 [Example 216, (R)-N-(4-(3,3-dimethylureido)benzyl)-1-isopropyl-5-(5-(3-methoxypyrrolidine-1-carbonyl)pyridin-2-yl)-4,5,6,7-tetrahydro-1H-pyrazolo[4,3-c]pyridine-3-carboxamide] | 6.26
13 | Cc1cnc2n1CCN(C(=O)c1ccc(N3CCc4c(c(C(=O)NCc5ccc(NC(=O)N(C)C)cc5)nn4C(C)C)C3)nc1)C2 [Example 404, N-(4-(3,3-dimethylureido)benzyl)-1-isopropyl-5-(5-(3-methyl-5,6,7,8-tetrahydroimidazo[1,2-a]pyrazine-7-carbonyl)pyridin-2-yl)-4,5,6,7-tetrahydro-1H-pyrazolo[4,3-c]pyridine-3-carboxamide] | 7.40
14 | CC(C)n1nc(C(=O)NCc2ccc(NC(=O)N3CC4CC4C3)cc2)c2c1CCN(c1ccc(C(=O)N(C)C)cn1)C2 (stereo not shown) [Example 186, N-(4-(3-azabicyclo[3.1.0]hexane-3-carboxamido)benzyl)-5-(5-(dimethylcarbamoyl)pyridin-2-yl)-1-isopropyl-4,5,6,7-tetrahydro-1H-pyrazolo[4,3-c]pyridine-3-carboxamide] | 8.00
15 | CC(C)n1nc(C(=O)NCc2ccc(NC(=O)N3CCC4(CCN(C)C4)CC3)cc2)c2c1[C@@H](C)CN(c1ccc(C(=O)N(C)C)cc1)C2 [Example 753, (S)-N-(4-((5-(4-(dimethylcarbamoyl)phenyl)-1-isopropyl-7-methyl-4,5,6,7-tetrahydro-1H-pyrazolo[4,3-c]pyridine-3-carboxamido)methyl)phenyl)-2-methyl-2,8-diazaspiro[4.5]decane-8-carboxamide] | 9.30
16 | CC(C)n1nc(C(=O)NCc2ccc(NC(=O)N(C)C)cc2)c2c1CCN(c1ccc(C(=O)N3CCc4nccnc4C3)cn1)C2 [Example 366, N-(4-(3,3-dimethylureido)benzyl)-1-isopropyl-5-(5-(5,6,7,8-tetrahydropyrido[3,4-b]pyrazine-6-carbonyl)pyridin-2-yl)-4,5,6,7-tetrahydro-1H-pyrazolo[4,3-c]pyridine-3-carboxamide] | 7.54
17 | CC(C)n1nc(C(=O)NCc2ccc(NC(=O)N3CC[C@@H](CN(C)C)C3)c(F)c2)c2c1[C@@H](C)CN(c1ccc(C(=O)N(C)C)cc1)C2 [Example 681, (S)-N-(4-((S)-3-((dimethylamino)methyl)pyrrolidine-1-carboxamido)-3-fluorobenzyl)-5-(4-(dimethylcarbamoyl)phenyl)-1-isopropyl-7-methyl-4,5,6,7-tetrahydro-1H-pyrazolo[4,3-c]pyridine-3-carboxamide] | 8.52
18 | Cc1nc2n(c1C)CCN(C(=O)c1ccc(N3CCc4c(c(C(=O)NCc5ccc(NC(=O)N(C)C)cc5)nn4C(C)C)C3)nc1)C2 [Example 414, 5-(5-(2,3-dimethyl-5,6,7,8-tetrahydroimidazo[1,2-a]pyrazine-7-carbonyl)pyridin-2-yl)-N-(4-(3,3-dimethylureido)benzyl)-1-isopropyl-4,5,6,7-tetrahydro-1H-pyrazolo[4,3-c]pyridine-3-carboxamide] | 7.18
19 | CCn1nc2c(c1C(=O)NCc1ccc(NC(=O)N(C)C)cc1)CN(c1ccc(C(=O)N(C)C)cn1)[C@@H](C)[C@@H]2C (stereo in doubt) [Example 316, rel-(6S,7S)-5-(5-(dimethylcarbamoyl)pyridin-2-yl)-N-(4-(3,3-dimethylureido)benzyl)-2-ethyl-6,7-dimethyl-4,5,6,7-tetrahydro-2H-pyrazolo[4,3-c]pyridine-3-carboxamide] | 5.42
